Converted amounts (≈) assume the structure as drawn.

Some test systems named below: Escherichia coli UB1005; Candida albicans; Proteus vulgaris; Bacillus subtilis; Salmonella typhimurium; Streptococcus pyogenes; Escherichia coli; Pseudomonas aeruginosa.
Test in all cases: ≥ marks a high value that may be exact or a test limit, other limits are often not marked, values filed in µg/mL are converted to µM
The test system of assay [1] is Bacillus cereus ATCC 11778.
In assay [2] the test system is Klebsiella aerogenes ATCC 13048.
For assay [3], the system named is Staphylococcus aureus ATCC 29213.
In assay [4] the test system is Escherichia coli ATCC 25922.
Assay [5] has as its system Salmonella enterica subsp. enterica serovar Typhimurium ATCC 14028.
For assay [6], the system named is Pseudomonas aeruginosa ATCC 27853.
The test system of assay [7] is Staphylococcus aureus ATCC 33591.
Assay [8] concerns Staphylococcus aureus ATCC 700699.
In assay [9] the test system is Klebsiella pneumoniae ATCC 700603.
The test system of assay [10] is Staphylococcus epidermidis.
For assay [11], the system named is Staphylococcus aureus ATCC 25923.
Assay [12] deals with Enterococcus faecalis ATCC 29212.
In assay [13] the test system is Salmonella enterica serovar Typhimurium.
Assay [14] has as its system Pseudomonas aeruginosa H103.

With `CC[C@H](C)[C@H](N)C(=O)N[C@@H](CC(C)C)C(=O)NCC(=O)N[C@@H](CCCCN)C(=O)N[C@@H](C)C(=O)N[C@@H](Cc1c[nH]c2ccccc12)C(=O)N[C@@H](CCC(=O)O)C(=O)NCC(=O)N[C@@H](C)C(=O)N[C@@H](CCCCN)C(=O)N[C@@H](CO)C(=O)N[C@@H](CC(C)C)C(=O)N[C@@H](Cc1ccccc1)C(N)=O` [ILGKAWEGAKSLF], the MIC was ≥ 70.4 µM in assay [1]; ≥ 70.4 µM in assay [2]; > 70.4 µM in assay [3]; > 70.4 µM in assay [4]; > 70.4 µM in [5].

Regarding `CC[C@H](C)[C@H](NC(=O)[C@H](CC(=O)O)NC(=O)[C@H](CCCCN)NC(=O)[C@H](C)NC(=O)[C@H](C)NC(=O)CNC(=O)[C@H](CCCCN)NC(=O)[C@H](CC(C)C)NC(=O)[C@@H](NC(=O)[C@H](CC(=O)O)NC(=O)[C@@H](NC(=O)[C@@H](NC(=O)CN)C(C)C)C(C)C)[C@@H](C)CC)C(=O)N[C@@H](C)C(=O)NCC(=O)N[C@@H](Cc1cnc[nH]1)C(=O)N[C@@H](C)C(=O)N[C@@H](CO)C(=O)N[C@@H](CCCCN)C(=O)N[C@H](C(=O)N[C@@H](CCSC)C(=O)N[C@@H](CC(N)=O)C(=O)N[C@@H](CCCCN)C(=O)N[C@@H](CC(C)C)C(N)=O)C(C)C` [GVVDILKGAAKDIAGHASKVMNKL], the minimum inhibitory concentration (MIC) is > 100 µM in [6]; > 100 µM in assay [3]; ≥ 100 µM in assay [7]; ≥ 100 µM in [8]; > 100 µM in [4]; > 100 µM in assay [9].

For `CC[C@H](C)[C@H](NC(=O)[C@H](CC(=O)O)NC(=O)[C@H](C)NC(=O)[C@H](C)NC(=O)[C@H](C)NC(=O)CNC(=O)[C@H](CCCCN)NC(=O)[C@H](CC(C)C)NC(=O)[C@@H](NC(=O)[C@H](CC(=O)O)NC(=O)[C@@H](NC(=O)[C@@H](NC(=O)CN)C(C)C)C(C)C)[C@@H](C)CC)C(=O)N[C@@H](C)C(=O)NCC(=O)N[C@@H](Cc1cnc[nH]1)C(=O)N[C@@H](CC(C)C)C(=O)N[C@@H](C)C(=O)N[C@@H](CO)C(=O)N[C@@H](CCCCN)C(=O)N[C@H](C(=O)N[C@@H](CCSC)C(=O)N[C@@H](CC(N)=O)C(=O)N[C@@H](CCCCN)C(=O)N[C@@H](CC(C)C)C(N)=O)C(C)C` [GVVDILKGAAADIAGHLASKVMNKL], the MIC in assay [6] was > 100 µM; in assay [3] it was > 100 µM; in assay [7], ≥ 100 µM; in [8] it was ≥ 100 µM; in [4], 100 µM (≈ 249 µg/mL); in assay [9], > 100 µM.

Consider `NCCCC[C@H](NC(=O)[C@H](Cc1c[nH]c2ccccc12)NC(=O)[C@H](Cc1c[nH]c2ccccc12)NC(=O)[C@H](CCCN=C(N)N)NC(=O)[C@@H](N)CCCN=C(N)N)C(=O)N[C@@H](Cc1c[nH]c2ccccc12)C(=O)N[C@@H](Cc1c[nH]c2ccccc12)C(=O)N[C@@H](Cc1c[nH]c2ccccc12)C(=O)N[C@@H](CCCN=C(N)N)C(=O)O` [RRWWKWWWR], for which the minimum inhibitory concentration (MIC) with Escherichia coli UB1005 is 2.7 µM (≈ 4.17 µg/mL); in assay [10] it was 0.7 µM (≈ 1.08 µg/mL); against Candida albicans, 5.4 µM (≈ 8.35 µg/mL); in assay [11], 0.7 µM (≈ 1.08 µg/mL); in assay [12] it was 5.4 µM (≈ 8.35 µg/mL); in [13] it was 2.7 µM (≈ 4.17 µg/mL). This molecule yielded an MIC in [14] of 5.4 µM (≈ 8.35 µg/mL).

In the case of `CC[C@H](C)[C@H](NC(=O)[C@H](CC(=O)O)NC(=O)[C@@H](NC(=O)[C@@H](NC(=O)CN)C(C)C)C(C)C)C(=O)N[C@@H](CC(C)C)C(=O)N[C@@H](CCCCN)C(=O)NCC(=O)N[C@@H](C)C(=O)N[C@@H](C)C(=O)N[C@@H](CCCCN)C(=O)N[C@@H](CC(=O)O)C(=O)N[C@@H](C)C(=O)N[C@@H](C)C(=O)NCC(=O)N[C@@H](Cc1cnc[nH]1)C(=O)N[C@@H](CC(C)C)C(=O)N[C@@H](C)C(=O)N[C@@H](CO)C(=O)N[C@@H](CCCCN)C(=O)N[C@H](C(=O)N[C@@H](CCSC)C(=O)N[C@@H](CC(N)=O)C(=O)N[C@@H](CCCCN)C(=O)N[C@@H](CC(C)C)C(N)=O)C(C)C` [GVVDILKGAAKDAAGHLASKVMNKL], the MIC in assay [6] is > 100 µM; in assay [3], > 100 µM; in assay [7], ≥ 100 µM; in assay [8], ≥ 100 µM; in [4], > 100 µM; in [9], > 100 µM.

With `CC[C@H](C)[C@H](NC(=O)[C@@H](NC(=O)[C@@H](NC(=O)[C@H](CCCN=C(N)N)NC(=O)[C@@H](NC(=O)[C@H](CCCN=C(N)N)NC(=O)[C@H](Cc1c[nH]c2ccccc12)NC(=O)[C@H](CCCCN)NC(=O)[C@@H](N)Cc1c[nH]c2ccccc12)C(C)C)C(C)C)[C@@H](C)O)C(=O)O` [WKWRVRVTI], the MIC against Escherichia coli UB1005 amounted to 1.3 µM (≈ 1.62 µg/mL); in [10], 1.3 µM (≈ 1.62 µg/mL); against Candida albicans, 10.8 µM (≈ 13.4 µg/mL); in assay [11], 2.7 µM (≈ 3.36 µg/mL); in assay [12] it was 2.7 µM (≈ 3.36 µg/mL); in assay [13] it was 2.7 µM (≈ 3.36 µg/mL). This molecule showed an MIC in assay [14] of 5.4 µM (≈ 6.72 µg/mL).

Consider `CC(C)C[C@H](NC(=O)[C@H](CCCN=C(N)N)NC(=O)[C@@H]1CCCN1C(=O)[C@H](Cc1cnc[nH]1)NC(=O)[C@@H]1CCCN1C(=O)[C@@H]1CCCN1C(=O)[C@H](CCCN=C(N)N)NC(=O)[C@@H]1CCCN1C(=O)[C@@H]1CCCN1C(=O)[C@H](Cc1cnc[nH]1)NC(=O)[C@@H]1CCCN1C(=O)[C@@H]1CCCN1C(=O)[C@H](CCCN=C(N)N)NC(=O)[C@@H]1CCCN1)C(=O)O` [PRPPHPPRPPHPRL], for which the minimum inhibitory concentration (MIC) against Proteus vulgaris is ≥ 64 µM; against Bacillus subtilis, ≥ 64 µM; in assay [10], ≥ 64 µM; with Salmonella typhimurium, 0.5 µM (≈ 0.825 µg/mL); against Streptococcus pyogenes, ≥ 64 µM; in the assay on Escherichia coli, 8 µM (≈ 13.2 µg/mL). In the assay with Pseudomonas aeruginosa, the minimal inhibitory concentration (MIC) is 64 µM (≈ 106 µg/mL).

In the case of `CC[C@H](C)[C@H](NC(=O)[C@H](CC(=O)O)NC(=O)[C@H](CCCCN)NC(=O)[C@H](C)NC(=O)[C@H](C)NC(=O)CNC(=O)[C@H](CCCCN)NC(=O)[C@H](CC(C)C)NC(=O)[C@@H](NC(=O)[C@H](CC(=O)O)NC(=O)[C@@H](NC(=O)[C@@H](NC(=O)CN)C(C)C)C(C)C)[C@@H](C)CC)C(=O)N[C@@H](C)C(=O)NCC(=O)N[C@@H](Cc1cnc[nH]1)C(=O)N[C@@H](CC(C)C)C(=O)N[C@@H](C)C(=O)N[C@@H](CO)C(=O)N[C@@H](CCCCN)C(=O)N[C@@H](C)C(=O)N[C@@H](CCSC)C(=O)N[C@@H](CC(N)=O)C(=O)N[C@@H](CCCCN)C(=O)N[C@@H](CC(C)C)C(N)=O` [GVVDILKGAAKDIAGHLASKAMNKL], the minimal inhibitory concentration (MIC) was > 100 µM in [6]; > 100 µM in assay [3]; ≥ 100 µM in [7]; ≥ 100 µM in [8]; > 100 µM in assay [4]; > 100 µM in assay [9].

As to `CC[C@H](C)[C@H](NC(=O)[C@H](CCCN=C(N)N)NC(=O)[C@H](Cc1ccccc1)NC(=O)[C@H](CCCN=C(N)N)NC(=O)[C@@H](N)C(C)C)C(=O)N[C@@H](CCCN=C(N)N)C(=O)N[C@H](C(=O)N[C@@H](C)C(=O)N[C@H](C(=O)N[C@H](C(=O)N[C@@H](CCCN=C(N)N)C(=O)N[C@@H](C)C(N)=O)[C@@H](C)CC)C(C)C)C(C)C` [VRFRIRVAVIRA], the minimum inhibitory concentration (MIC) came to 1.1 µM (≈ 1.6 µg/mL) with Escherichia coli UB1005; 1.1 µM (≈ 1.6 µg/mL) in assay [10]; 4.12 µM (≈ 6 µg/mL) in the assay on Candida albicans; 8.24 µM (≈ 12 µg/mL) in assay [11]; 4.12 µM (≈ 6 µg/mL) in assay [13]; 4.12 µM (≈ 6 µg/mL) in [14].

The term MIC denotes the lowest concentration that inhibits growth of the organism. A higher MIC goes with weaker potency.

The values above are taken from DBAASP.
